Test results: ChEMBL document CHEMBL1201862, “PubChem BioAssay data set” (2004)
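A five-concentration, 48-hour dose response in 96-well plates underlies each endpoint, interpolated linearly between surrounding concentrations. GI50: concentration for 50% inhibition of growth.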 Active and inactive are the calls of the source. Rule as the data show it: active = GI50 up to about 1.1 µM and inactive = higher.

How the values were obtained:
Experiment in all cases: NCI-60 cell line screen, 48 h
A498 = tested on: A498
A549 = tested on: A549
DU-145 = tested on: DU-145
EKVX = tested on: EKVX
HCC 2998 = tested on: HCC 2998
HL-60 = tested on: HL-60
HOP-92 = tested on: HOP-92
Hs-578T = tested on: Hs-578T
M14 = tested on: M14
MDA-MB-231 = tested on: MDA-MB-231
MOLT-4 = tested on: MOLT-4
Malme-3M = tested on: Malme-3M
NCI-H226 = tested on: NCI-H226
OVCAR-3 = tested on: OVCAR-3
OVCAR-4 = tested on: OVCAR-4
PC-3 = tested on: PC-3
SK-MEL-28 = tested on: SK-MEL-28
TK-10 = tested on: TK-10
UACC-257 = tested on: UACC-257
UO-31 = tested on: UO-31

Row | Compound | GI50 (A498) | GI50 (A549) | GI50 (DU-145) | GI50 (EKVX) | GI50 (HCC 2998) | GI50 (HL-60) | GI50 (HOP-92) | GI50 (Hs-578T) | GI50 (M14) | GI50 (MDA-MB-231) | GI50 (MOLT-4) | GI50 (Malme-3M) | GI50 (NCI-H226) | GI50 (OVCAR-3) | GI50 (OVCAR-4) | GI50 (PC-3) | GI50 (SK-MEL-28) | GI50 (TK-10) | GI50 (UACC-257) | GI50 (UO-31)
1 | O=C1N[C@@H]2c3c(Br)sc(Br)c3C(=O)[C@@H]2N1 | 17.3 µM (inactive) | 12.6 µM (inactive) | 5.86 µM (inactive) | 4.08 µM (inactive) | 1.81 µM (inactive) | 2.14 µM (inactive) | 5.56 µM (inactive) | 8.28 µM (inactive) | 3.82 µM (inactive) | 4.83 µM (inactive) | 2.76 µM (inactive) | 4.52 µM (inactive) | 29.6 µM (inactive) | 2.59 µM (inactive) | 3.94 µM (inactive) | 3.05 µM (inactive) | 3.78 µM (inactive) | 2.24 µM (inactive) | 3.3 µM (inactive) | 3.53 µM (inactive)
2 | CCN1C(=O)/C(=C\Nc2ccccc2)S/C1=N/Nc1ncc(CC(=O)Nc2ccccc2C)s1 | > 100 µM (inactive) | 58.2 µM (inactive) | > 100 µM (inactive) | > 100 µM (inactive) | 91 µM (inactive) | 42.6 µM (inactive) | 67.6 µM (inactive) | 45.6 µM (inactive) | > 100 µM (inactive) | > 100 µM (inactive) | 51.5 µM (inactive) | > 100 µM (inactive) | 11.2 µM (inactive) | 43.7 µM (inactive) | > 100 µM (inactive) | 44.9 µM (inactive) | > 100 µM (inactive) | 75.5 µM (inactive) | > 100 µM (inactive) | 38.7 µM (inactive)
3 | COc1cc2oc(=O)ccc2cc1CC=C(C)C [SUBEROSIN] | 27.2 µM (inactive) | 46.8 µM (inactive) | 36.8 µM (inactive) | 5.81 µM (inactive) | 31 µM (inactive) | 14.7 µM (inactive) | 18 µM (inactive) | 35.4 µM (inactive) | > 10 µM (inactive) | 50.2 µM (inactive) | 28.8 µM (inactive) | 37.4 µM (inactive) | 29.6 µM (inactive) | 59.7 µM (inactive) | 23.4 µM (inactive) | 83 µM (inactive) | 76.4 µM (inactive) | 19.9 µM (inactive) | 54.3 µM (inactive) | 21.9 µM (inactive)
4 | CCOC(=O)C1(C(=O)OCC)C[C@H]2CON=C2[C@@H]1c1ccc(C(F)(F)F)cc1 | 53.1 µM (inactive) | 75 µM (inactive) | > 100 µM (inactive) | 29.5 µM (inactive) | 31.9 µM (inactive) | 27.7 µM (inactive) | 50.4 µM (inactive) | 98.6 µM (inactive) | 55.1 µM (inactive) | > 100 µM (inactive) | 25.9 µM (inactive) | > 100 µM (inactive) | 34.9 µM (inactive) | 40.1 µM (inactive) | 17.7 µM (inactive) | 42.9 µM (inactive) | > 100 µM (inactive) | 67 µM (inactive) | 30.8 µM (inactive) | 14.2 µM (inactive)
5 | COc1cc(/N=N/c2cccc(S(N)(=O)=O)c2)c2ccccc2c1N | 19.7 µM (inactive) | 14 µM (inactive) | 1.9 µM (inactive) | 13.8 µM (inactive) | 8.04 µM (inactive) | 5.2 µM (inactive) | 17.3 µM (inactive) | 2.67 µM (inactive) | 1.91 µM (inactive) | 10.5 µM (inactive) | 5.65 µM (inactive) | 1.7 µM (inactive) | 19.9 µM (inactive) | 4.86 µM (inactive) | 13.4 µM (inactive) | 11.5 µM (inactive) | 7.11 µM (inactive) | 16.1 µM (inactive) | 1.54 µM (inactive) | 15.3 µM (inactive)
6 | c1ccc(-c2cc(-c3cc(-c4ccccc4)no3)on2)cc1 | > 100 µM (inactive) | 53.2 µM (inactive) | > 100 µM (inactive) | 72.6 µM (inactive) | > 100 µM (inactive) | > 100 µM (inactive) | 24.5 µM (inactive) | 47.6 µM (inactive) | > 100 µM (inactive) | 24.1 µM (inactive) | 25.2 µM (inactive) | > 100 µM (inactive) | 71 µM (inactive) | 39.5 µM (inactive) | 19.4 µM (inactive) | > 100 µM (inactive) | > 100 µM (inactive) | > 100 µM (inactive) | > 100 µM (inactive) | > 100 µM (inactive)
7 | CCN1C=C/C(=C\C=C\c2cc[n+](CC)c3ccccc23)c2ccccc21 | 3.78 µM (inactive) | 3.77 µM (inactive) | 4.92 µM (inactive) | 18.9 µM (inactive) | 7.24 µM (inactive) | 0.0135 µM (active) | 12.4 µM (inactive) | 4.02 µM (inactive) | 5.02 µM (inactive) | 3.31 µM (inactive) | 3.2 µM (inactive) | 13.4 µM (inactive) | 3.36 µM (inactive) | 2.49 µM (inactive) | 4.46 µM (inactive) | 4.49 µM (inactive) | 8.99 µM (inactive) | 10.6 µM (inactive) | 3.18 µM (inactive) | 15.2 µM (inactive)
